The term IC50 denotes the point on the concentration scale where inhibition reaches its midpoint.

Activity calls are given as the source filed them. The rule behind the calls is not given here. Non-standard residues stand in square brackets, D forms with d. Residues, ends and D or L forms follow the SMILES beside them. Groups on a side chain read outwards from the residue. *: point of attachment. BODIPY(FL) = CC1=CC(C)=[N+]2C1=Cc1ccc(CCC(=O)*)n1[B-]2(F)F; NMeK = CN[C@@H](CCCCN)C(=O)O; Ahx = NCCCCCC(=O)O

This is an account of results in ChEMBL document CHEMBL4411322 (J Med Chem, 2019).

For one series, the target named is Integrin alpha-5/beta-1 (Homo sapiens, UniProt P05556+P08648). Put plainly: Inhibition of human fibronectin binding to human integrin alpha5beta1 receptor after 1 hr by solid-phase binding assay. The series is classed as protein-complex assay.
The target in series [1] is T1, Integrin alpha-V/beta-8 (Homo sapiens, UniProt P06756+P26012). Put plainly: Binding affinity to alphavbeta8 in human BHY cells assessed as fluorescence intensity at 10 uM after 1 hr using BDP FL-labeled compound by immunocytochemical analysis. The series is classed as cell-based.
Series [2] concerns the target T1, Integrin alpha-V/beta-8. Put plainly: Binding affinity to alphavbeta8 in human REC cells assessed as fluorescence intensity at 10 uM after 1 hr using BDP FL-labeled compound by immunocytochemical analysis. The series is classed as cell-based.
For series [3], the target named is T1, Integrin alpha-V/beta-8. As to the kind of experiment: Inhibition of LAP binding to human integrin alphavbeta8 receptor after 1 hr by solid-phase binding assay. As to conditions: read-out: IC50. The series is classed as protein-complex assay.
Target sequence in this assay (P06756 31-889 limits assumed): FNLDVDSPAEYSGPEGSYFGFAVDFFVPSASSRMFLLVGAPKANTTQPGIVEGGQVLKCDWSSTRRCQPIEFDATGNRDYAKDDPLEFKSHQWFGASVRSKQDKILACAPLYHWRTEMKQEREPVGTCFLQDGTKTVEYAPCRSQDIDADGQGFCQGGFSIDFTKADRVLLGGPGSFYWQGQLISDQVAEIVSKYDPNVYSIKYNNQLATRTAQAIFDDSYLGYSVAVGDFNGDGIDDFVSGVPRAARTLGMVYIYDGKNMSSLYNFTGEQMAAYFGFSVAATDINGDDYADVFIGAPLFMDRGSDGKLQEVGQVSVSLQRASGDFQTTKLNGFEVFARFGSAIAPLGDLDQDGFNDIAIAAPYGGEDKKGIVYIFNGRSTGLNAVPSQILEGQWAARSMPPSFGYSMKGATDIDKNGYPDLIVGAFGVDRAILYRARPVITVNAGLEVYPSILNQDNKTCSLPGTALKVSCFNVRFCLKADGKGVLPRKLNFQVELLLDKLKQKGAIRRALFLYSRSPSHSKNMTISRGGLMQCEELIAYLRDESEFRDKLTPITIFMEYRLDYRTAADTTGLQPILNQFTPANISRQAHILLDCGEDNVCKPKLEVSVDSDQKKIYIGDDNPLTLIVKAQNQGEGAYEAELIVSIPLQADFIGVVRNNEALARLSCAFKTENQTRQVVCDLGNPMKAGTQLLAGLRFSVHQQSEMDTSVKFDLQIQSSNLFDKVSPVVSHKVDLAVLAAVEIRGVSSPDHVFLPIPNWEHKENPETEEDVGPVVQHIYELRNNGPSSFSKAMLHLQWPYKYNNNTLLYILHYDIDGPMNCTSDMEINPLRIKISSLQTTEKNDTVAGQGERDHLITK
Target sequence in this assay (P06756 891-1048 limits assumed): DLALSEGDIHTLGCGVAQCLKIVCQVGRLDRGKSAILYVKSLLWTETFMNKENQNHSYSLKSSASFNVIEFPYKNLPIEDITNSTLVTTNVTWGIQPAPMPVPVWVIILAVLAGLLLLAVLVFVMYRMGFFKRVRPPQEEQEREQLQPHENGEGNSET
Target sequence in this assay (P26012 43-769 limits assumed): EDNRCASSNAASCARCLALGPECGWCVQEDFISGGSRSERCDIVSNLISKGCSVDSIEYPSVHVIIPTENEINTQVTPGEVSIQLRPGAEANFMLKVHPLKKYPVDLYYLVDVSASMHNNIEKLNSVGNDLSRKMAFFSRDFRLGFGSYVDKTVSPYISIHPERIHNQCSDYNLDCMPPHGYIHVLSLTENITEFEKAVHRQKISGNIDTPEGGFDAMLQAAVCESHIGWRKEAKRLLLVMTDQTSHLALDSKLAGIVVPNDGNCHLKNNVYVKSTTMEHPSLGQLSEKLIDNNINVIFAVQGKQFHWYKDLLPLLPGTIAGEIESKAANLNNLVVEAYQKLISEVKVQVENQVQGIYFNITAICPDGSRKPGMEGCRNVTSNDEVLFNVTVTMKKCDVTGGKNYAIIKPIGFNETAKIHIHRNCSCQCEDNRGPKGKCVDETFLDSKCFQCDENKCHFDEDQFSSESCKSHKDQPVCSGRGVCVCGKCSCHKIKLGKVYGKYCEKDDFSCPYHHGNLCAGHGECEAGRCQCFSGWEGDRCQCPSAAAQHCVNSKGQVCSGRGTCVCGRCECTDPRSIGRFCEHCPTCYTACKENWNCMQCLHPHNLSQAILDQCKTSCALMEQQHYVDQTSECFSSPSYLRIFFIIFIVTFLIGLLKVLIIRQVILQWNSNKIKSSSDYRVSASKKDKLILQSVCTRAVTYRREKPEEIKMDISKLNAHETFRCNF
Series [4] has as its target T1, Integrin alpha-V/beta-8. Put plainly: Binding affinity to alphavbeta8 in TGF-beta1 stimulated human REC cells assessed as fluorescence intensity at 10 uM after 1 hr using fluorescence-labeled compound by immunocytochemical analysis.
Another series has as its target Integrin alpha-V/beta-5 (Homo sapiens, UniProt P06756+P18084). Put plainly: Inhibition of human vitronectin binding to human integrin alphavbeta5 receptor after 1 hr by solid-phase binding assay. The series is classed as protein-complex assay.
The target of series [5] is T1, Integrin alpha-V/beta-8. As to the kind of experiment: Binding affinity to alphavbeta8 in human HN cells assessed as fluorescence intensity at 10 uM after 1 hr using BDP FL-labeled compound by immunocytochemical analysis. The series is classed as cell-based.
In series [6] the target is T1, Integrin alpha-V/beta-8. Put plainly: Binding affinity to alphavbeta8 in TGF-beta1 stimulated human BHY cells assessed as fluorescence intensity at 10 uM after 1 hr using in presence of 5 to 100 molar excess peptide 1a by immunocytochemical analysis relative to control. The series is classed as cell-based.
In series [7] the target is Integrin alpha-IIb/beta-3 (Homo sapiens, UniProt P05106+P08514). As to the kind of experiment: Inhibition of human fibrinogen binding to human platelet integrin alpha2b-beta3 receptor after 1 hr by solid-phase binding assay.
Another series addresses Integrin alpha-V/beta-6 (Homo sapiens, UniProt P06756+P18564). As to the kind of experiment: Inhibition of LAP binding to human integrin alphavbeta6 receptor after 1 hr by solid-phase binding assay. The series is classed as protein-complex assay. As to conditions: read-out: IC50.
The target in series [8] is T1, Integrin alpha-V/beta-8. Put plainly: Binding affinity to alphavbeta8 in TGF-beta1 stimulated human BHY cells assessed as fluorescence intensity at 10 uM after 1 hr using fluorescence-labeled compound in presence of 10 molar excess peptide 1a by immunocytochemical analysis. The series is classed as cell-based.
In series [9] the target is T1, Integrin alpha-V/beta-8. As to the kind of experiment: Binding affinity to alphavbeta8 in TGF-beta1 stimulated human HN cells assessed as fluorescence intensity at 10 uM after 1 hr using in presence of 10 to 20 molar excess peptide 2 by immunocytochemical analysis relative to control.
Series [10] concerns the target T1, Integrin alpha-V/beta-8. Put plainly: Binding affinity to alphavbeta8 in TGF-beta1 stimulated human BHY cells assessed as fluorescence intensity at 10 uM after 1 hr using fluorescence-labeled compound in presence of 10 molar excess peptide 2 by immunocytochemical analysis. The series is classed as cell-based.
A further series concerns the target Integrin alpha-V/beta-3 (Homo sapiens, UniProt P05106+P06756). Put plainly: Inhibition of human vitronectin binding to human integrin alphavbeta3 receptor after 1 hr by solid-phase binding assay. The series is classed as protein-complex assay.
A further series is filed under the species Homo sapiens. As to the kind of experiment: Selectivity ratio of IC50 for human integrin alphavbeta6 receptor to IC50 for human integrin alphavbeta8 receptor.
A short description of series [11]: Stability in 90% human serum assessed as drug degradation at 1 mM after 180 mins by HPLC analysis. Conditions: 3 h, 1000 µM. The series is classed as ADME, cell-free.
The nature of series [12]: Stability in 90% human serum assessed as drug degradation at 1 mM after 60 mins by HPLC analysis. The series is classed as ADME, cell-free. Conditions: read-out: Drug degradation.
The nature of series [13]: Stability in 90% human serum assessed as drug degradation at 1 mM after 15 mins by HPLC analysis. The series is classed as ADME, cell-free. As to conditions: read-out: Drug degradation.

Integrin alpha-V/beta-6, sequence (P06756 31-889 limits assumed): as the sequence (P06756 31-889 limits assumed) above
Integrin alpha-V/beta-6, sequence (P06756 891-1048 limits assumed): as the sequence (P06756 891-1048 limits assumed) above
Integrin alpha-V/beta-6, sequence (P18564 22-788 limits assumed): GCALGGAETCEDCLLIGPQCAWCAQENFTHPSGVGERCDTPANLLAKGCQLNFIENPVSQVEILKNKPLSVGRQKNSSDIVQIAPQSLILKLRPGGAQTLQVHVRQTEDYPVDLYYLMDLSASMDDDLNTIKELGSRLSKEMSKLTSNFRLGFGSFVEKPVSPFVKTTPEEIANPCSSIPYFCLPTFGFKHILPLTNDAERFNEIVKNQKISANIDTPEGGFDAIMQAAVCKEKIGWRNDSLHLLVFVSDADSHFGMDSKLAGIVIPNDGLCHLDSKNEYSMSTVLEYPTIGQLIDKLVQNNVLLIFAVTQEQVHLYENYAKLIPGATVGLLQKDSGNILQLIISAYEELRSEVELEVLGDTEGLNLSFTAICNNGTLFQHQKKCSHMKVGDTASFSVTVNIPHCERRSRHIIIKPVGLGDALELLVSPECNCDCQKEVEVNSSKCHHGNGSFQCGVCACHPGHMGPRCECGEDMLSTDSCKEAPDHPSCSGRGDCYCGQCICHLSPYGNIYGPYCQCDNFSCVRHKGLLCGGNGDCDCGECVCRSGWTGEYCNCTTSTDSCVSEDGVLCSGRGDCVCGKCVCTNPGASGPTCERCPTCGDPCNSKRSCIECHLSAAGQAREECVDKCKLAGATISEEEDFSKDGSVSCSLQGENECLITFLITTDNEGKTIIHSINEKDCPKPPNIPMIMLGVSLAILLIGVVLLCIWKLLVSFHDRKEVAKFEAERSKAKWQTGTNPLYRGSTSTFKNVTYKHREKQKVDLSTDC
Integrin alpha-V/beta-5, sequence (P06756 31-889 limits assumed): as the sequence (P06756 31-889 limits assumed) above
Integrin alpha-V/beta-5, sequence (P06756 891-1048 limits assumed): as the sequence (P06756 891-1048 limits assumed) above
Integrin alpha-V/beta-5, sequence (P18084 24-799 limits assumed): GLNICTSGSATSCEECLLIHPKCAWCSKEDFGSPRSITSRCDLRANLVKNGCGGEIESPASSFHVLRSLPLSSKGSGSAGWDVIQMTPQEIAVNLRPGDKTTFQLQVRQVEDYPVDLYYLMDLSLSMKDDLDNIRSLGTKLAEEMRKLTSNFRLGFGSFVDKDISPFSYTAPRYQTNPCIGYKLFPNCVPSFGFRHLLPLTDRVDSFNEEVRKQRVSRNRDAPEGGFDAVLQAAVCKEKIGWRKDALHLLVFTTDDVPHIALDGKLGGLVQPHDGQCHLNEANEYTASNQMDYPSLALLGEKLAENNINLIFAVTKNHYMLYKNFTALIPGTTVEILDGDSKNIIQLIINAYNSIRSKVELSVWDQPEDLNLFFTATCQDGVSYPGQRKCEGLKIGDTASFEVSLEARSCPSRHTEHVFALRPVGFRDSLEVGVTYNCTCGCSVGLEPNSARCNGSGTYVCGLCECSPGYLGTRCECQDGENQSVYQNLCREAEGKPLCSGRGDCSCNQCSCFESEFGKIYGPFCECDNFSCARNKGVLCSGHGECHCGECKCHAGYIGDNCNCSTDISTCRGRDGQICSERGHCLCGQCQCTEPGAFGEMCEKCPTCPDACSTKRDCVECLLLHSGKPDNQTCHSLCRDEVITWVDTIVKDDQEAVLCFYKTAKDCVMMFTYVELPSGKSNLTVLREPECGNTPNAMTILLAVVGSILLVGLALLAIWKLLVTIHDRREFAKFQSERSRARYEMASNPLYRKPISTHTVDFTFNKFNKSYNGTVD
Integrin alpha-V/beta-3, sequence (P05106 27-788 limits assumed): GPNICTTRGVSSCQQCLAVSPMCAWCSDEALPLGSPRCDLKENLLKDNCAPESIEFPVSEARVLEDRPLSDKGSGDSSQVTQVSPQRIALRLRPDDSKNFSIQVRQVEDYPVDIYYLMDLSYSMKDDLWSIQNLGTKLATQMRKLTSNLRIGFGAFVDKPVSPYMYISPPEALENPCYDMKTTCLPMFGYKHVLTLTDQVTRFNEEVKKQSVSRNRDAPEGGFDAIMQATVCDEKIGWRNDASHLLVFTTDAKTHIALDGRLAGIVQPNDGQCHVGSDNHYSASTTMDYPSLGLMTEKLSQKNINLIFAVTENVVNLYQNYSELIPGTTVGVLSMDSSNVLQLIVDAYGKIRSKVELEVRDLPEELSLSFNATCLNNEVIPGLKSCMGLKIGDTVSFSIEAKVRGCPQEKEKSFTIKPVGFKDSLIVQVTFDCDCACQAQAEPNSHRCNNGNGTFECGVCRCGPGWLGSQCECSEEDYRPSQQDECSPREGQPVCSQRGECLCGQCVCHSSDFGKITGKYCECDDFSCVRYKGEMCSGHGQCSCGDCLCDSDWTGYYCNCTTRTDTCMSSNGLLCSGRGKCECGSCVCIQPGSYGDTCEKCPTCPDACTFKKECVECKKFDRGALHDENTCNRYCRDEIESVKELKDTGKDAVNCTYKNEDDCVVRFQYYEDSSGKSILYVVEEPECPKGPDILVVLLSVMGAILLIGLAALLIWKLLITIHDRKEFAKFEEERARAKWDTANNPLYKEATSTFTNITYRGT
Integrin alpha-V/beta-3, sequence (P06756 31-889 limits assumed): as the sequence (P06756 31-889 limits assumed) above
Integrin alpha-V/beta-3, sequence (P06756 891-1048 limits assumed): as the sequence (P06756 891-1048 limits assumed) above

With `CC1=CC(C)=[N+]2C1=Cc1ccc(CCC(=O)NCCCCCC(=O)NCCCC[C@H]3C(=O)NCC(=O)N[C@@H](CC(C)C)C(=O)N[C@@H](CCCNC(=N)N)C(=O)NCC(=O)N[C@@H](CC(=O)O)C(=O)N[C@@H](CC(C)C)C(=O)N4CCC[C@@H]4C(=O)N3C)n1[B-]2(F)F` (cyclo(RGDL[dP][NMeK]([Ahx-BODIPY(FL)])GL)), the half-inhibitory concentration (IC50) was 689 nM on Integrin alpha-5/beta-1; 0.06 nM on Integrin alpha-V/beta-8 [3]; more than 1000 nM on Integrin alpha-V/beta-5; more than 1000 nM in series [7]; 47 nM on Integrin alpha-V/beta-6; 43 nM at Integrin alpha-V/beta-3. In addition, the result at Integrin alpha-V/beta-8 [1], at Integrin alpha-V/beta-8 [2], at Integrin alpha-V/beta-8 [4] and on Integrin alpha-V/beta-8 [5] was Active. Further, the result at Integrin alpha-V/beta-8 [6], at Integrin alpha-V/beta-8 [8] and on Integrin alpha-V/beta-8 [10] was inactive. The Activity at Integrin alpha-V/beta-8 [9] came to 50%.

As to `CC(C)C[C@@H]1NC(=O)CNC(=O)[C@@H]2CCCN2C(=O)[C@H]2CCCN2C(=O)[C@H](CC(C)C)NC(=O)[C@H](CC(=O)O)NC(=O)CNC(=O)[C@H](CCCNC(=N)N)NC1=O` (cyclo(RGDL[dP]PGL)), the IC50 was more than 1000 nM at Integrin alpha-5/beta-1; 4.5 nM on Integrin alpha-V/beta-8 [3]; more than 1000 nM at Integrin alpha-V/beta-5; more than 1000 nM in series [7]; 160 nM at Integrin alpha-V/beta-6; more than 1000 nM on Integrin alpha-V/beta-3. Besides, the Ratio IC50 in the series listed under Homo sapiens worked out at 36.

As to `CC1=CC(C)=[N+]2C1=Cc1ccc(CCC(=O)NCCCCCC(=O)NCCCC[C@@H]3NC(=O)[C@@H](Cc4ccccc4)NC(=O)[C@H](CC(=O)O)NC(=O)CCNC(=O)[C@H](CCCNC(=N)N)NC3=O)n1[B-]2(F)F`, the outcome at Integrin alpha-V/beta-8 [1], at Integrin alpha-V/beta-8 [2] and at Integrin alpha-V/beta-8 [5] was inactive.

`CC(=O)NCCCC[C@H]1C(=O)NCC(=O)N[C@@H](CC(C)C)C(=O)N[C@@H](CCCNC(=N)N)C(=O)NCC(=O)N[C@@H](CC(=O)O)C(=O)N[C@@H](CC(C)C)C(=O)N2CCC[C@@H]2C(=O)N1C` (cyclo(RGDL[dP][NMeK](Ac)GL)): the IC50 on Integrin alpha-5/beta-1 was more than 1000 nM; at Integrin alpha-V/beta-8 [3], 8 nM; at Integrin alpha-V/beta-5, more than 1000 nM; in series [7], more than 1000 nM; on Integrin alpha-V/beta-6 it was 99 nM; at Integrin alpha-V/beta-3, 343 nM. In addition, the Stability entry in series [11] is listed as “Stable”. Moreover, the Ratio IC50 in the series listed under Homo sapiens came to 12.

Take `CC(C)C[C@H](NC(=O)[C@H](CO)NC(=O)[C@H](CC(=O)O)NC(=O)[C@H](CC(C)C)NC(=O)[C@H](CC(=O)O)NC(=O)[C@@H](NC(=O)[C@@H](N)CCCNC(=N)N)[C@@H](C)O)C(=O)N[C@@H](CCCNC(=N)N)C(=O)N[C@H](C(=O)O)[C@@H](C)O`: the metabolised at 1 h, 1000 µM in series [12] was found to be 100%. Moreover, in series [13], the metabolised at 0.25 h, 1000 µM was 56%.
